# Measurements from the supplement of paper PMC10307832.
# Experiments:
# Assay in all cases: relative viability (nuclei count vs DMSO), 5 days (fraction); higher = more cells survive
# Daporinad + Vorinostat = compound: O=C(/C=C/c1cccnc1)NCCCCC1CCN(C(=O)c2ccccc2)CC1 [Daporinad] + O=C(CCCCCCC(=O)Nc1ccccc1)NO [Vorinostat] (partner 1 µM)
# Outline: (§1)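 Relative viability was taken as the ratio of nuclei in treated wells to nuclei in vehicle wells. Lung cancer cell lines in 1536-well plates received compounds by pin tool one day after seeding, either one drug alone or a fixed anchor-drug dose plus five library-drug doses (not always all listed) in √10 steps. Nuclei were counted on 4× images after 5 days of treatment, and values are medians of duplicate plates.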
# Daporinad + Bortezomib = compound: O=C(/C=C/c1cccnc1)NCCCCC1CCN(C(=O)c2ccccc2)CC1 [Daporinad] + CC(C)C[C@H](NC(=O)[C@H](Cc1ccccc1)NC(=O)c1cnccn1)B(O)O [Bortezomib] (partner 0.002 µM)
# Outline: as §1
# R406 + Crizotinib = compound: COc1cc(Nc2ncc(F)c(Nc3ccc4c(n3)NC(=O)C(C)(C)O4)n2)cc(OC)c1OC [R406] + C[C@@H](Oc1cc(-c2cnn(C3CCNCC3)c2)cnc1N)c1c(Cl)ccc(F)c1Cl [Crizotinib] (partner 1 µM)
# Outline: as §1
# R406 + Palbociclib = compound: COc1cc(Nc2ncc(F)c(Nc3ccc4c(n3)NC(=O)C(C)(C)O4)n2)cc(OC)c1OC [R406] + CC(=O)c1c(C)c2cnc(Nc3ccc(N4CCNCC4)cn3)nc2n(C2CCCC2)c1=O [Palbociclib] (partner 0.5 µM)
# Outline: as §1
Cell Line,relative viability (Daporinad + Vorinostat; first compound 0.0005 µM),relative viability (Daporinad + Vorinostat; first compound 0.001581 µM),relative viability (Daporinad + Vorinostat; first compound 0.005 µM),relative viability (Daporinad + Vorinostat; first compound 0.01581 µM),relative viability (Daporinad + Bortezomib; first compound 0.0005 µM),relative viability (Daporinad + Bortezomib; first compound 0.001581 µM),relative viability (Daporinad + Bortezomib; first compound 0.005 µM),relative viability (Daporinad + Bortezomib; first compound 0.01581 µM),relative viability (R406 + Crizotinib; first compound 0.08 µM),relative viability (R406 + Crizotinib; first compound 0.253 µM),relative viability (R406 + Crizotinib; first compound 0.8 µM),relative viability (R406 + Crizotinib; first compound 2.53 µM),relative viability (R406 + Crizotinib; first compound 8 µM),relative viability (R406 + Palbociclib; first compound 0.08 µM),relative viability (R406 + Palbociclib; first compound 0.253 µM),relative viability (R406 + Palbociclib; first compound 0.8 µM),relative viability (R406 + Palbociclib; first compound 2.53 µM),relative viability (R406 + Palbociclib; first compound 8 µM)
NCI-H1437,0.759,0.831,0.893,0.718,0.414,0.629,0.561,0.554,0.944,1.13,0.971,0.864,0.716,0.318,0.349,0.363,0.391,0.229
NCI-H1650,0.518,0.746,0.547,0.322,0.182,0.222,0.219,0.187,1.05,1.09,0.961,0.327,0.139,0.337,0.345,0.396,0.117,0.0985
NCI-H1651,0.613,0.594,0.695,0.529,0.953,0.952,1.01,0.788,0.869,0.914,0.853,0.815,0.929,0.496,0.578,0.531,0.511,0.527
NCI-H1666,0.98,1.03,0.956,1.07,0.846,0.93,0.9,0.742,0.92,1.3,0.973,0.849,0.461,0.653,0.662,0.678,0.675,0.638
NCI-H1734,0.837,0.897,0.729,0.301,0.937,0.967,0.888,0.333,0.707,0.814,0.654,0.542,0.292,0.359,0.372,0.376,0.346,0.243
NCI-H1755,0.76,0.934,0.807,0.751,0.928,0.969,0.935,0.971,0.81,0.954,0.861,0.641,0.188,0.419,0.456,0.422,0.421,0.397
NCI-H1915,0.52,0.605,0.634,0.462,0.987,1.05,0.961,0.883,0.898,0.975,0.959,0.782,0.874,0.536,0.567,0.529,0.488,0.521
NCI-H1975,0.748,0.728,0.813,0.689,0.397,0.395,0.332,0.402,0.949,1.13,0.977,0.46,0.221,0.537,0.734,0.644,0.115,0.192
NCI-H1993,0.766,0.723,0.775,0.88,0.919,1.21,1.09,1.12,0.933,0.866,0.809,0.75,0.661,0.651,0.667,0.611,0.683,0.607
NCI-H2009,0.745,0.79,0.708,0.347,0.887,1.09,1.06,0.846,1.07,1.02,1.13,0.815,0.301,0.232,0.212,0.265,0.192,0.114
NCI-H2023,0.848,0.667,0.715,0.631,1.01,1.1,1.04,0.972,0.705,0.855,0.681,0.254,0.145,0.359,0.355,0.359,0.174,0.106
NCI-H2085,0.737,,0.92,0.966,1,1.12,1.08,1.17,0.841,0.974,0.785,0.887,0.566,0.468,0.459,0.45,0.455,0.36
NCI-H2087,0.89,0.645,0.576,0.792,0.676,0.644,0.868,0.662,0.825,1.26,0.899,0.983,0.936,0.231,0.26,0.26,0.23,0.243
NCI-H2126,0.862,0.836,0.948,0.91,1.07,1.14,1.13,1.15,0.965,1.11,1.01,1.02,0.995,0.347,0.357,0.313,0.349,0.276
NCI-H2228,0.568,0.606,0.692,0.544,0.788,1.2,1.12,1.11,0.572,0.435,0.528,0.164,0.101,0.728,1.07,0.688,0.244,0.427
NCI-H2347,0.586,0.754,0.601,0.616,1.15,1.03,0.922,1.41,0.588,0.538,0.889,0.556,0.487,0.423,0.415,0.453,0.446,0.406
NCI-H2405,0.851,1.06,0.874,0.31,1,0.772,1.02,0.612,0.769,0.989,0.861,0.78,0.638,0.52,0.561,0.517,0.364,0.2
NCI-H3122,0.938,1.14,1.03,0.898,1.02,1.01,1.02,1.05,0.286,0.257,0.247,0.25,0.259,0.18,0.184,0.178,0.237,0.238
